The target in the assay is T1, HCV polymerase (Hepatitis C virus genotype 1b, UniProt P26663).
T1 construct: 2.5 pmoles (0.15 μg) HCV polymerase protein in a final volume of 75 μL
T1 sequence (P26663 2420-3010): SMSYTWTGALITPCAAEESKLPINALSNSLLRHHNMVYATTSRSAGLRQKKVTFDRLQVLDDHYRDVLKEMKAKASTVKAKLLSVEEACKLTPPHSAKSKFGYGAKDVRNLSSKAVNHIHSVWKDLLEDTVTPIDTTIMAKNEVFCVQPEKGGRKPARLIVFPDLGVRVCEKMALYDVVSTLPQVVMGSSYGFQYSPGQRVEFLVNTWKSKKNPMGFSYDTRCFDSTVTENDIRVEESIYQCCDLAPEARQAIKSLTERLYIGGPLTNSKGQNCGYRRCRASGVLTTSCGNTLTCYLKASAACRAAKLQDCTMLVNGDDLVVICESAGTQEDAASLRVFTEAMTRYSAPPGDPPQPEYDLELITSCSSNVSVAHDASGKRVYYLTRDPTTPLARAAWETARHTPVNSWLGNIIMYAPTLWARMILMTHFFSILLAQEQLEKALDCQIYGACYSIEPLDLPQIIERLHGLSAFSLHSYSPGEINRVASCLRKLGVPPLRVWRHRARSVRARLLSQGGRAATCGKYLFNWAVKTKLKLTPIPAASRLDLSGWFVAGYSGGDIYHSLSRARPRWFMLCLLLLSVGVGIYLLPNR
In words: HCV polymerase primer/template-directed transcription assay (32P-GTP incorporation, filter binding). It counts as biochemical. The settings on record: recombinant HCV polymerase; 30 minutes at 30° C.; concentration giving 50% inhibition of polymerase-directed transcription; read-out: IC50. A digest of the protocol: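 Recombinant genotype 1b polymerase (30 nM) extended biotin-dG12 primer on poly(rC)300 template with 1 μM GTP plus α-32P-GTP, pH 7.2, 10 mM MgCl2, 30 min at 30° C, 1% DMSO final. Products captured on DE filters and counted. IC50 fitted from triplicate cpm, with a tight-binding correction applied below 200 nM.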
With `Cc1cc(C)n2nc(CC3=C(O)CC(CCc4ccc([C@@H](C)O)cc4)(C4CCCC4)OC3=O)nc2n1` (some centres unmarked) [B(112), 6-Cyclopentyl-3-(5,7-dimethyl-[1,2,4]triazolo[1,5-a]pyrimidin-2-ylmethyl)-4-hydroxy-6-{2-[4-(1-hydroxy-ethyl)-phenyl]-ethyl}-5,6-dihydro-pyran-2-one], the IC50 (as a rule, the point on the concentration scale where inhibition reaches its midpoint) was 97 nM.
As for `CCc1cc(CCC2(C3CCCC3)CC(O)=C(Cc3nc4nc(C)cc(C)n4n3)C(=O)O2)ccc1Cl` (centres unmarked) [B(113), 6-[2-(4-Chloro-3-ethyl-phenyl)-ethyl]-6-cyclopentyl-3-(5,7-dimethyl-[1,2,4]triazolo[1,5-a]pyrimidin-2-ylmethyl)-4-hydroxy-5,6-dihydro-pyran-2-one], the figure is 19 nM; as for `C[C@@H](O)c1ccc(CCC2(C3CCCC3)CC(=O)CC(=O)O2)cc1F` (some centres unmarked) [B(115), 6-Cyclopentyl-6-{2-[3-fluoro-4-(1-hydroxy-ethyl)-phenyl]-ethyl}-dihydro-pyran-2,4-dione], 3300 nM.
As for `COc1ccc(CCC2(C3CCCC3)CC(O)=C(Cc3nc4nc(C)cc(C)n4n3)C(=O)O2)c(OC)c1` (centres unmarked) [B(117), 6-Cyclopentyl-6-[2-(2,4-dimethoxy-phenyl)-ethyl]-3-(5,7-dimethyl-[1,2,4]triazolo[1,5-a]pyrimidin-2-ylmethyl)-4-hydroxy-5,6-dihydro-pyran-2-one], the figure is 111 nM; as for `COc1ccc(CCC2(C3CCCC3)CC(O)=C(Cc3nc4ncc(C)cn4n3)C(=O)O2)c(OC)c1` (centres unmarked) [B(118), 6-Cyclopentyl-6-[2-(2,4-dimethoxy-phenyl)-ethyl]-4-hydroxy-3-(6-methyl-[1,2,4]triazolo[1,5-a]pyrimidin-2-ylmethyl)-5,6-dihydro-pyran-2-one], 200 nM; as for `COc1ccc(CCC2(C3CCCC3)CC(O)=C(Cc3nc4ncc(Cl)cn4n3)C(=O)O2)c(OC)c1` (centres unmarked) [B(119), 3-(6-Chloro-[1,2,4]triazolo[1,5-a]pyrimidin-2-ylmethyl)-6-cyclopentyl-6-[2-(2,4-dimethoxy-phenyl)-ethyl]-4-hydroxy-5,6-dihydro-pyran-2-one], 70 nM.
The result for `COc1ccc(CCC2(C3CCCC3)CC(=O)CC(=O)O2)cc1[C@@H](C)O` (some centres unmarked) [B(121), 6-Cyclopentyl-6-{2-[3-(1-hydroxy-ethyl)-4-methoxy-phenyl]-ethyl}-dihydro-pyran-2,4-dione] reads 6000 nM; that for `Cc1cc(C)n2nc(CC3=C(O)CC(CCc4ccc(C5(C)OCCO5)c(Cl)c4)(C4CCCC4)OC3=O)nc2n1` (centres unmarked) [B(122), 6-{2-[3-Chloro-4-(2-methyl-[1,3]dioxolan-2-yl)-phenyl]-ethyl}-6-cyclopentyl-3-(5,7-dimethyl-[1,2,4]triazolo[1,5-a]pyrimidin-2-ylmethyl)-4-hydroxy-5,6-dihydro-pyran-2-one], 7 nM; that for `CC1(c2ccc(CCC3(C4CCCC4)CC(=O)CC(=O)O3)cc2Cl)OCCO1` (centres unmarked) [B(123), 6-{2-[3-Chloro-4-(2-methyl-[1,3]dioxolan-2-yl)-phenyl]-ethyl}-6-cyclopentyl-dihydro-pyran-2,4-dione], 580 nM.
As for `CC(=O)c1ccc(CCC2(C3CCCC3)CC(O)=C(Cc3nc4nc(C)cc(C)n4n3)C(=O)O2)cc1Cl` (centres unmarked) [B(124), 6-[2-(4-Acetyl-3-chloro-phenyl)-ethyl]-6-cyclopentyl-3-(5,7-dimethyl-[1,2,4]triazolo[1,5-a]pyrimidin-2-ylmethyl)-4-hydroxy-5,6-dihydro-pyran-2-one], the IC50 is 90 nM.
As for `Cc1cnc2nc(CC3=C(O)CC(CCc4ccc(C5(C#N)CC5)c(Cl)c4)(C4CCCC4)OC3=O)nn2c1` (centres unmarked) [B(125), 1-(2-Chloro-4-{2-[2-cyclopentyl-4-hydroxy-5-(6-methyl-[1,2,4]triazolo[1,5-a]pyrimidin-2-ylmethyl)-6-oxo-3,6-dihydro-2H-pyran-2-yl]-ethyl}-phenyl)-cyclopropanecarbonitrile], the figure is 4 nM.

For the origin of these results see patent US7473790B2 (Pfizer Inc., priority 2003, dated 2009).
